Format in all cases: cell-based, mouse
Assay [1] relates to CD4+ T cells. Briefly: TCR activation markers (CD25, CD69, Nur77, CD44). An excerpt: Representative FACS plots of CD4^+ T cells cultured for 3 days and stained intracellularly for FoxP3 (e). Quantification of FoxP3^+ and viable T cells after 3-day culture (f) (n=2/group). n, number of biologically independent samples. Data are representative of two independent experiments (b, d). Data in (c) are shown as the mean±standard deviation.

The test system of assay [2] is naïve CD4+ T cells. Put plainly: Cell proliferation assay (CFSE). The conditions noted are these: 3 days, vs DMSO. The method, then: Data are representative of two independent experiments (b, d).
Cell Proliferation Assay. Naïve CD4^+ T cells were labeled with 1 μM carboxyfluorescein succinimidyl ester (CFSE, BioLegend) and cultured for 3 days prior to FACS analysis.

Assay [3] has as its system naïve CD4+ T cells (Treg differentiation, FoxP3). Put plainly: In vitro Treg differentiation, FoxP3 staining by flow cytometry. An excerpt:
To determine if bile acids influence T cell functions, the present inventors performed a small-scale screening assay with a small molecule library comprising secondary bile acids with in vitro Treg differentiation as a read-out. Naïve CD4^+ T lymphocytes were sorted from wild-type B6 mice and cultured in the presence of a TCR stimulus, interleukin 2 (IL-2), and different amounts of TGFβ (optimized for Treg differentiation). Treg differentiation was quantified at the single cell level by staining with an antibody specific for FoxP3, followed by flow cytometry analysis. Retinoic acid, a known enhancer of Treg differentiation, was used as a positive control.
(§1) Our screen included both primary bile acids, synthesized by the host, and secondary bile acids, produced by bacterial modification of primary bile acids (FIG. 5). Naïve CD4^+ T cells were isolated from wild-type C57BL/6J (B6) mice and cultured with bile acids under Th17 differentiation conditions and, as a counter-screen, Treg differentiation conditions (FIG. 6).
(§2) In Vitro T Cell Culture. Naïve CD4^+ (CD62L^+ CD44^− CD25^− CD4^+) T cells were isolated from the spleens and the lymph nodes of mice of designated genotypes with FACS sorting. For certain experiments, naïve CD4^+ T cells were enriched using naïve CD4^+ T cell isolation kits (Miltenyi). Naïve CD4^+ T cells (40,000 cells) were cultured in a 96-well plate pre-coated with hamster IgG (MP Biomedicals) in T cell medium (RPMI, 10% fetal bovine serum, 25 mM glutamine, 55 μM 2-mercaptoethanol, 100 U/mL penicillin, […] streptomycin) supplemented with 0.25 μg/mL anti-CD3 (clone 145-2C11) and 1 μg/mL anti-CD28 (clone 37.51). For Th0 culture, T cells were cultured with the addition of 100 U/mL of IL-2 (PEPROTECH). For Th1 cell differentiation, T cells were cultured with the addition of 100 U/mL of IL-2, 10 μg/mL of anti-IL-4 (clone 11B11) and 10 ng/mL of IL-12 (PEPROTECH). For Th2 cell differentiation, T cells were cultured with the addition of 10 μg/mL of anti-IFNγ (clone XMG1.2) and 10 ng/mL of IL-4 (R&D Systems). For Th17 cell differentiation, T cells were cultured with the addition of 10 ng/mL of IL-6 (eBioscience) and 0.5 ng/mL of TGF-β (PEPROTECH). For Treg culture, T cells were cultured with the addition of 100 U/mL of IL-2 and various concentrations of TGF-β. […] Bile acids, retinoic acid (Sigma) or mitoQ (Focus Biomolecules), or mitoPQ (Sigma) were added either at 0 or 16 h time points. Compounds with low water solubility were sonicated before adding to the culture. Cells were harvested and assayed by flow cytometry on day 3. For ROS and mitochondrial membrane potential detection, cells cultured for 2 days were incubated with 5 μM of mitoSOX (ThermoFisher), 10 μM of DCFDA (Sigma) or 2 μM of JC-1 (ThermoFisher) for 30 min and assayed with flow cytometry.
(§3) Flow Cytometry. Cells harvested from in vitro culture or in vivo mice experiments were stimulated with 50 ng/mL PMA (Phorbol 12-myristate 13-acetate, Sigma) and 1 μM ionomycin (Sigma) in the presence of GolgiPlug (BD) for 4 h to determine cytokine expression. After stimulation, cells were stained with cell surface marker antibodies and LIVE/DEAD Fixable dye, Aqua, to exclude dead cells, fixed and permeabilized with a FoxP3/Transcription factor staining kit (eBioscience), followed by staining with cytokine- and/or transcription factor-specific antibodies. All flow cytometry analyses were performed on an LSR II flow cytometer (BD) and data were analyzed with FlowJo software (TreeStar).

For assay [4], the system named is naïve CD4+ T cells (Th1 or Th2 cells). Briefly: In vitro Th1 and Th2 differentiation (IFN-γ, IL-4, T-bet, GATA3). The note with it: 20 μM, day 5. As for the experimental part: In Vitro T Cell Culture. Naïve CD4^+ (CD62L^+ CD44^− CD25^− CD4^+) T cells were isolated from the spleens and the lymph nodes of mice of designated genotypes with FACS sorting. For certain experiments, naïve CD4^+ T cells were enriched using naïve CD4^+ T cell isolation kits (Miltenyi). Naïve CD4^+ T cells (40,000 cells) were cultured in a 96-well plate pre-coated with hamster IgG (MP Biomedicals) in T cell medium (RPMI, 10% fetal bovine serum, 25 mM glutamine, 55 μM 2-mercaptoethanol, 100 U/mL penicillin, […] streptomycin) supplemented with 0.25 μg/mL anti-CD3 (clone 145-2C11) and 1 μg/mL anti-CD28 (clone 37.51). For Th0 culture, T cells were cultured with the addition of 100 U/mL of IL-2 (PEPROTECH). For Th1 cell differentiation, T cells were cultured with the addition of 100 U/mL of IL-2, 10 μg/mL of anti-IL-4 (clone 11B11) and 10 ng/mL of IL-12 (PEPROTECH). For Th2 cell differentiation, T cells were cultured with the addition of 10 μg/mL of anti-IFNγ (clone XMG1.2) and 10 ng/mL of IL-4 (R&D Systems). For Th17 cell differentiation, T cells were cultured with the addition of 10 ng/mL of IL-6 (eBioscience) and 0.5 ng/mL of TGF-β (PEPROTECH). […]
Flow Cytometry. […] All flow cytometry analyses were performed on an LSR II flow cytometer (BD) and data were analyzed with FlowJo software (TreeStar).

Assay [5] has as its system naïve CD4+ T cells (Th17 differentiation, IL-17a). Briefly: In vitro Th17 differentiation, IL-17a staining by flow cytometry.
Description: as §1, §2, §3

Entries after “also recorded” stand apart in the source; their conditions may differ.

For the compound `C[C@H](CCC(=O)O)[C@H]1CC[C@H]2[C@@H]3CC[C@@H]4CC(=O)CC[C@]4(C)[C@H]3CC[C@]12C` [3-oxoLCA, 3-oxolithocholic acid], in assay [1], the “T cell receptor (TCR)-mediated activation” value is reported as “do not significantly affect cell proliferation, cell viability, or T cell activation”. The cell proliferation entry in assay [2] was “do not significantly affect cell proliferation; also recorded: did not affect cell proliferation”. For the same compound, the “effect on Treg differentiation induced by isoalloLCA” value in assay [3] (3-oxoLCA 20 μM + isoalloLCA 20 μM) is recorded as “further enhanced Treg differentiation induced by isoalloLCA in vitro”. The “Treg differentiation (FoxP3 expression)” value in assay [3] (bile acids 20 μM, 3 days, anti-CD3/28, IL-2) is reported as “did not affect Tregs”. In assay [4], the “T cell differentiation into Th1 or Th2 cells” value is on record as “neither compound affected T cell differentiation into Th1 or Th2 cells”. Also, the “suppression of Th17 cells in VDR or FXR knockout cells” value in assay [5] (20 μM) was “VDR and FXR also failed to contribute to the suppressive activities”. Also, in assay [5] (bile acids 20 μM, 3 days, IL-6 and TGF-β), the “Th17 cell differentiation (IL-17a)” value is listed as “dose-dependent effects; also recorded: inhibited Th17 differentiation”.

The record behind these values is patent US12103946B2, “Steroid compounds as Treg modulators and uses thereof” (New York University, priority 2018, dated 2024).
